The text below walks through data of patent publication US9546139B2, “Pyridine carboxylic acid based compound used as a P2X1 and P2X3 receptor antagonist, a production method for the same and a composition comprising the same” (GWANGJU INSTITUTE OF SCIENCE AND TECHNOLOGY, priority 2010, dated 2017).

Read-outs that look alike come from different tables or passages of the source.

The target in one assay is T1, human P2X3 receptor (Homo sapiens, UniProt P56373).
T1 construct: expressed in transfected cells; host or cells: Xenopus oocytes (cRNA injected); cDNA from the Max-Planck Institute laboratory (Dr. W. Stuhmer and Dr. F. Soto)
T1 sequence (P56373 1-397): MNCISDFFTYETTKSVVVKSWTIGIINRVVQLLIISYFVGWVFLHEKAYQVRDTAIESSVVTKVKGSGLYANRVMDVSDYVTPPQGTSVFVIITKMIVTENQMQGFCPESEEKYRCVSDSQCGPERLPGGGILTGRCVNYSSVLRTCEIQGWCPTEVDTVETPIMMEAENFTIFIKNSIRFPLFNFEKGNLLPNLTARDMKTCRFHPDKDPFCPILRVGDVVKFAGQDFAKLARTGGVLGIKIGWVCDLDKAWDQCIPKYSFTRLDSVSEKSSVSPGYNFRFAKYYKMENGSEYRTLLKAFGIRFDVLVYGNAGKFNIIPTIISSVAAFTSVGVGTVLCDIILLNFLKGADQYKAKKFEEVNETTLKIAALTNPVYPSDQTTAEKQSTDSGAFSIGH
The assay is described as follows: Two-electrode voltage clamp, ATP-induced ion current in Xenopus oocytes expressing human P2X3. The format is cell-based. The following applies: for inhibition at 0.1 µM: 100 nM compound; for inhibition at 0.1 µM / inhibition at 10 µM: read-out: % inhibition hP2X3. The procedure:
Antagonistic Activity at Recombinant Mouse P2X1 and Human P2X3 Receptors
(§1) Xenopus oocytes were harvested and prepared with method as previously described in publications. Defolliculated oocytes were injected cytosolically with mouse P2X1 and human P2X3 receptor cRNA ([…], 1 μg/mL), respectively, incubated for 24 hrs at 18° C. in Barth's solution and kept for up to 12 days at 4° C. until used in electrophysiological experiments. ATP-activated membrane currents (Vh=−70 mV) were recorded from cRNA-injected oocytes using the twin-electrode voltage-clamp technique (Axoclamp 2B amplifier). Voltage recording (1-2 MΩ tip resistance) and current-recording microelectrodes (5 MΩ tip resistance) were filled with 3.0 M KCl. Oocytes were held in an electrophysiological chamber and superfused with Ringer's solution (5 mL/min, at 18° C.) containing (mM) NaCl, 110; KCl, 2.5; HEPES, 5; BaCl2, 1.8, adjusted to pH 7.5. ATP was superfused over the oocytes for 60-120s then washed out for a period of 20 min. For inhibition curves, data were normalized to the current evoked by ATP, at pH 7.5. Test substances were added for 20 min prior to ATP exposure; all peptides were tested for reversibility of their effects. The concentration required to inhibit the ATP response by 50% (IC50) was taken from Hill plots constructed using the formula: log(I/Imax−1), where I is the current evoked by ATP in the presence of an antagonist. Data are presented as mean±SEM (n=4) for the data from different batches of oocytes.
In general terms: Two-electrode voltage clamp is typically applied to oocytes expressing channels or transporters.

The target in a further assay is T2, mouse P2X1 receptor (Mus musculus, UniProt P51576).
T2 construct: EST clones containing full-length cDNAs of mouse P2X1 (clone ID: 4189541) and human P2X7 receptor (clone ID: 5286944); host or cells: Xenopus oocytes (cRNA injected)
T2 sequence (P51576 1-399): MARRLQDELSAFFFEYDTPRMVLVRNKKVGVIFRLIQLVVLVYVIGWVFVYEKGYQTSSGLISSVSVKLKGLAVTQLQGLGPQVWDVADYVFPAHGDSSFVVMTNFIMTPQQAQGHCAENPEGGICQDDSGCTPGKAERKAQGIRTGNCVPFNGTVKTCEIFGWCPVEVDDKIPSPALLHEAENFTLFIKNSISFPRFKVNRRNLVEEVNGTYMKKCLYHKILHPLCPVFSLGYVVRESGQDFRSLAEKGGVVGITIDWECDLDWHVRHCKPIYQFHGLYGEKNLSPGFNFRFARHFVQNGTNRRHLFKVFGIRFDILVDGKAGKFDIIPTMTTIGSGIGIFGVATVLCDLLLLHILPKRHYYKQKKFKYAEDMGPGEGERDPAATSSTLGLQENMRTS
Nature of the assay: Two-electrode voltage clamp, ATP-induced ion current in Xenopus oocytes expressing mouse P2X1. The format is cell-based. To be noted: for inhibition at 0.1 µM / inhibition at 10 µM: read-out: % inhibition mP2X1; for antagonistic activity, mouse P2X1 versus human P2X3: comparison of the two receptors. The procedure: 1-1. Antagonistic Activity at Recombinant Mouse P2X1 and Human P2X3 Receptors
as §1

Setting [1] is: Table 1, ion current induced by 2 μM ATP, mean ± SEM, n = 4.
Where [2] appears, read: Table 1, 100 nM compound, ion current induced by 2 μM ATP, mean ± SEM, n = 4.
[3] abbreviates: Table 1, 10 μM compound, ion current induced by 2 μM ATP, mean ± SEM, n = 4.
Where [4] appears, read: concentration-inhibitory curve, 2 μM ATP (FIG. 1C, FIG. 2B).
The mark [5] stands for this setting: concentration-inhibitory curve, 2 μM ATP, read-out: IC50 value (FIG. 1C).
Where [6] appears, read: concentration-response curve, 2 μM ATP, mean of four observations, read-out: IC50 value.
Where [7] appears, read: concentration-inhibitory curve, 2 μM ATP (FIG. 1B, FIG. 2A).
The mark [8] stands for this setting: concentration-inhibitory curve, 2 μM ATP, read-out: IC50 value (FIG. 1B).

In general, inhibition refers to the relative decrease from the control value, in per cent. For `Cc1nc(N=Nc2ccc(S(=O)(=O)O)cc2)c(CCC(=O)O)c(C(=O)O)c1O` [Compound 27, 3-(2-carboxyethyl)-5-hydroxy-6-methyl-2-((4-sulfophenyl)diazenyl)isonicotinic acid], the inhibition at 0.1 µM was 37.6 ± 6.9% at human P2X3 receptor (setting [1]) and 57.6 ± 8.8% at mouse P2X1 receptor (setting [2]). Also, the “antagonistic activity, mouse P2X1 versus human P2X3” value on mouse P2X1 receptor is on record as “more powerful antagonistic activity to mouse P2X1 than human P2X3 receptor”.
In the case of `Cc1ncc(CN(CCC(=O)O)Cc2ccccc2)c(C=O)c1O` [Compound 22, 3-(Benzyl((4-formyl-5-hydroxy-6-methylpyridin-3-yl)methyl)amino)propanoic acid], on human P2X3 receptor (setting [3]), the “% inhibition hP2X3” value was “inactive”. Moreover, the “% inhibition mP2X1” value at mouse P2X1 receptor (setting [3]) was “inactive”.
What is called Hill coefficient is the slope factor of the fitted curve. By IC50 is commonly meant the concentration at which inhibition is half-maximal. For the compound `Cc1nc(N=Nc2ccc(C(=O)O)cc2)c(CCC(=O)O)c(C=O)c1O` [Compound 28, 4-((3-(2-carboxyethyl)-4-formyl-5-hydroxy-6-methylpyridin-2-yl)diazenyl)benzoic acid], the inhibition at 0.1 µM is 56.3 ± 8.8% on human P2X3 receptor (setting [1]) and 48.5 ± 9.5% on mouse P2X1 receptor (setting [2]). Besides, the values for the Hill coefficient on human P2X3 receptor (setting [4]) and at mouse P2X1 receptor (setting [7]) were −1.08±0.02 and −1.20±0.45, respectively. In addition, the 50% inhibitory concentration (IC50) on human P2X3 receptor (setting [5]) amounted to 0.0798 ± 0.00121 µM; at human P2X3 receptor (setting [6]) it was 0.08 µM; at mouse P2X1 receptor (setting [8]), 0.13 ± 0.0136 µM; at mouse P2X1 receptor (setting [6]), 0.13 µM.
As for `Cc1nc(N=Nc2cc(S(=O)(=O)O)ccc2S(=O)(=O)O)c(CCC(=O)O)c(C(=O)O)c1O` [Compound 25, 3-(2-Carboxyethyl)-2-((2,5-disulfophenyl)diazenyl)-5-hydroxy-6-methylisonicotinic acid], the inhibition at 0.1 µM on human P2X3 receptor (setting [1]) amounted to 45.7 ± 10.8%. Further, at mouse P2X1 receptor (setting [2]), the “% inhibition mP2X1” value was determined as 60.2 ± 4.9% and the inhibition at 0.1 µM stood at 60%. In addition, the “antagonistic activity, mouse P2X1 versus human P2X3” value at mouse P2X1 receptor is recorded as “more powerful antagonistic activity to mouse P2X1 than human P2X3 receptor”.
In the case of `Cc1nc(/N=N/c2ccc(C(=O)O)cc2)c(COP(=O)(O)O)c(C=O)c1O` [MRS2159, reference compound], the Hill coefficient at mouse P2X1 receptor (setting [7]) is on record as −1.13±0.20.
Turning to `Cc1ncc(CCC(=O)O)c(C=O)c1O` [Compound 13, 3-(4-formyl-5-hydroxy-6-methylpyridin-3-yl) propanoic acid], the inhibition at 10 µM is 22.3 ± 8.1% on human P2X3 receptor (setting [3]) and 19.5 ± 5.1% on mouse P2X1 receptor (setting [3]).
The like results for `Cc1ncc(C=CC(=O)O)c(C=O)c1O` [Compound 17, 3-(4-Formyl-5-hydroxy-6-methylpyridin-3-yl)acrylic acid] were, in that order, 9.3 ± 2.3% and 7.4 ± 1.9%.
The like results for `Cc1ncc(CCC(=O)O)c(C(=O)O)c1O` [Compound 14, 5-(2-Carboxyethyl)-3-hydroxy-2-methyl isonicotinic acid] were, in that order, 15.2 ± 7.7% and 14.8 ± 1.7%.
On to `Cc1ncc(CN(CCC(=O)O)Cc2ccccc2)c(C(=O)O)c1O` [Compound 23, 5-((Benzyl(2-carboxyethyl)amino)methyl)-3-hydroxy-2-methylisonicotinic acid], for which, at human P2X3 receptor (setting [3]), the “% inhibition hP2X3” value is “inactive”. Also, at mouse P2X1 receptor (setting [3]), the “% inhibition mP2X1” value was “inactive”.
With `Cc1nc(N=Nc2ccc(S(=O)(=O)O)cc2)c(CCC(=O)O)c(C=O)c1O` [Compound 26, 3-(4-Formyl-5-hydroxy-6-methyl-2-((4-sulfophenyl)diazenyl)pyridin-3-yl)propanoic acid], the inhibition at 0.1 µM turned out to be 46.5 ± 11.2% on human P2X3 receptor (setting [1]) and 41.8 ± 9.8% at mouse P2X1 receptor (setting [2]).
As to `Cc1nc(N=Nc2ccc(C(=O)O)cc2)c(CCC(=O)O)c(C(=O)O)c1O` [Compound 29, 3-(2-carboxyethyl)-2-((4-carboxyphenyl)diazenyl)-5-hydroxy-6-methy lisonicotinic acid], the inhibition at 0.1 µM on human P2X3 receptor (setting [1]) was 25.7 ± 6.9%; on mouse P2X1 receptor (setting [2]), 51.7 ± 7.4%. The “antagonistic activity, mouse P2X1 versus human P2X3” value on mouse P2X1 receptor was “more powerful antagonistic activity to mouse P2X1 than human P2X3 receptor”.
On to `Cc1nc(N=Nc2cc(S(=O)(=O)O)ccc2S(=O)(=O)O)c(COP(=O)(O)O)c(C=O)c1O` [Compound 3, pyridoxal-phosphate-6-azophenyl-2′,5′-disulfonic acid, reference compound], for which the “% inhibition hP2X3” value on human P2X3 receptor was determined as 48.3 ± 5.6%. Moreover, the Hill coefficient is −1.11±0.27 on human P2X3 receptor and −1.09±0.13 on mouse P2X1 receptor. Moreover, the IC50 on human P2X3 receptor (read-out: IC50 value (FIG. 1C)) was determined as 0.0962 ± 0.021 µM; at mouse P2X1 receptor (read-out: IC50 value (FIG. 1B)), 0.0307 ± 0.00512 µM. Besides, at mouse P2X1 receptor, the “% inhibition mP2X1” value came out at 62.4 ± 3.1%.
As for `O=C(O)c1cc(C(=O)O)c(C(=O)N(Cc2cccc(Oc3ccccc3)c2)[C@H]2CCCc3ccccc32)cc1C(=O)O` [A-317491, reference compound], the Hill coefficient on human P2X3 receptor (setting [4]) is −0.68±0.18.
On to `Cc1ncc(C=CC(=O)O)c(C(=O)O)c1O` [Compound 18, 5-(2-Carboxyvinyl)-3-hydroxy-2-methylisonicotinic acid], for which the “% inhibition hP2X3” value on human P2X3 receptor (setting [3]) was “inactive”. The “% inhibition mP2X1” value at mouse P2X1 receptor (setting [3]) was “inactive”.
With `Cc1nc(N=Nc2cc(S(=O)(=O)O)ccc2S(=O)(=O)O)c(CCC(=O)O)c(C=O)c1O` [Compound 24, 3-(2-((2,5-Disulfophenyl)diazenyl)-4-formyl-5-hydroxy-6-methylpyridin-3-yl)propanoic acid], the inhibition at 0.1 µM was determined as 40.1 ± 8.4% at human P2X3 receptor (setting [1]) and 58.6 ± 4.5% on mouse P2X1 receptor (setting [2]). For the same compound, the Hill coefficient at human P2X3 receptor (setting [4]) was −1.18±0.25; at mouse P2X1 receptor (setting [7]), −1.13±0.40. Further, the IC50 stood at 0.105 ± 0.0175 µM on human P2X3 receptor (setting [5]), 0.105 µM on human P2X3 receptor (setting [6]), 0.0705 ± 0.00272 µM on mouse P2X1 receptor (setting [8]) and 0.07 µM at mouse P2X1 receptor (setting [6]). Moreover, the “inhibitory activity to the ATP-induced ion current” value against mouse P2X1 receptor (FIG. 1A, 2 μM ATP, two concentrations) is “concentration-dependent inhibitory activity”.
